Measurements: PubChem BioAssay (NCI)
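A five-concentration, 48-hour dose response in 96-well plates underlies each endpoint, interpolated linearly between surrounding concentrations. TGI: total growth inhibition.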

How the values were obtained:
Experiment in all cases: NCI anticancer screen, dose series, 48 h
[1] = test system: HT29 colon
[2] = test system: A549 NSCLC
[3] = test system: SNB-78 CNS
[4] = test system: SF-268 CNS
[5] = test system: UACC-257 melanoma
[6] = test system: SR leukemia
[7] = test system: ACHN renal
[8] = test system: LOX IMVI melanoma
[9] = test system: SW-620 colon
[10] = test system: NCI-H460 lung
[11] = test system: SN12C renal
[12] = test system: COLO 205 colon
[13] = test system: KM12 colon
[14] = test system: MALME-3M melanoma
[15] = test system: SK-OV-3 ovarian
[16] = test system: KM20L2 colon
[17] = test system: M19-MEL melanoma
[18] = test system: RPMI-8226 leukemia
[19] = test system: EKVX NSCLC
[20] = test system: DMS 114 small cell lung
[21] = test system: HCT-116 colon
[22] = test system: SK-MEL-5 melanoma
[23] = test system: M14 melanoma
[24] = test system: CCRF-CEM leukemia
[25] = test system: UO-31 renal
[26] = test system: TK-10 renal
[27] = test system: 786-0 renal
[28] = test system: XF 498 CNS
[29] = test system: NCI-H226 lung
[30] = test system: SK-MEL-28 melanoma
[31] = test system: SNB-19 CNS
[32] = test system: SNB-75 CNS
[33] = test system: DMS 273 small cell lung
[34] = test system: U251 CNS
[35] = test system: LXFL 529 NSCLC
[36] = test system: MOLT-4 leukemia
[37] = test system: UACC-62 melanoma
[38] = test system: NCI-H522 lung
[39] = test system: SF-295 CNS
[40] = test system: NCI-H23 lung
[41] = test system: HOP-18 NSCLC
[42] = test system: OVCAR-4 ovarian
[43] = test system: K-562 leukemia
[44] = test system: HCT-15 colon
[45] = test system: OVCAR-8 ovarian
[46] = test system: SK-MEL-2 melanoma
[47] = test system: HOP-62 NSCLC
[48] = test system: RXF 393 renal
[49] = test system: HL-60(TB) leukemia
[50] = test system: IGROV1 ovarian
[51] = test system: OVCAR-3 ovarian
[52] = test system: HOP-92 NSCLC
[53] = test system: OVCAR-5 ovarian
[54] = test system: SF-539 CNS
[55] = test system: DLD-1 colon
[56] = test system: HCC-2998 colon
[57] = test system: CAKI-1 renal
[58] = test system: A498 renal

Measured: TGI

CC(=O)O[C@]12CCCCCCC1C1(O)C(O)CCC[C@H]12 (some centres undefined)
> 100 µM: [1] | [2] | [3] | [4] | [5] | [6] | [7] | [8] | [9] | [10] | [11] | [12] | [13] | [14] | [15] | [16] | [17] | [18] | [19] | [20] | [21] | [22] | [23] | [24] | [25] | [26] | [27] | [28] | [29] | [30] | [31] | [32] | [33] | [34] | [35] | [36] | [37] | [38] | [39] | [40] | [41] | [42] | [43] | [44] | [45] | [46] | [47] | [48]

Cc1ccc(S(=O)(=O)C(C#N)c2nc3ccccc3nc2-n2cccn2)cc1 (centres undefined)
> 100 µM: [1] | [2] | [3] | [4] | [49] | [5] | [7] | [10] | [11] | [12] | [13] | [14] | [15] | [17] | [50] | [18] | [19] | [20] | [21] | [51] | [23] | [24] | [25] | [26] | [27] | [28] | [52] | [29] | [53] | [30] | [54] | [31] | [32] | [55] | [33] | [56] | [34] | [35] | [36] | [39] | [40] | [41] | [42] | [43] | [44] | [45] | [46]

CCOc1ccc(NC(=O)c2c(N/N=C/c3ccc(OC)cc3)nc(=O)[nH]c2C)cc1
39.4 µM: [58]
83.1 µM: [15]
96.5 µM: [32]
91 µM: [54]
> 100 µM: [3] | [4] | [49] | [6] | [7] | [10] | [11] | [12] | [14] | [17] | [50] | [18] | [21] | [23] | [24] | [25] | [27] | [28] | [52] | [29] | [30] | [55] | [33] | [56] | [57] | [35] | [36] | [37] | [40] | [43] | [44] | [46] | [47]
69.7 µM: [38]
88.4 µM: [42]
